Source: US8367733B2 (Vallinex, Inc., priority 2002, dated 2013)
Read-outs that look alike come from different tables or passages of the source.

Tests used:
[1] = more potent than capsaicin; cited from earlier work
[2] = test system: subjects with osteoarthritis of the knee; experiment: Osteoarthritis of the knee safety study (Phase 1): safety, tolerability and VAS pain after intra-articular infiltration; format: in vivo, human; details: for patients reporting transient burning pain immediately following instillation: after 2% lignocaine
Procedure: The primary objective of the study was to evaluate the safety and tolerability of intra-articular capsaicin, when co-administered with intra-articular local anesthetic, compared to placebo, in subjects with end-stage osteoarthritis of the knee, already scheduled to receive knee replacements.
Study drug was stored at a temperature between 15° C. and 25° C.
The study was designed to include 16 evaluation subjects. […] Sixteen subjects completed the study.
Patients were treated randomly and in double-blind fashion in four treatment cohorts, with each cohort having a progressively longer interval between the intra-articular administration of study medication and subsequent total knee replacement (2, 4, 7, and 14 days). […] Gross and microscopic pathology analysis was completed for each treatment cohort before the next treatment coort was treated.
Each subject had 3 study visits: a Screening Day (Day −7 to −1), the Treatment Day (Day 0), and a Post-Treatment Day (scheduled for Day +2, +4, +7, or +14). On the Treatment Day the subject was randomized, pre-treatment evaluation was performed. The patients were brought into the procedure room, and a VAS pain score was taken (0 mm—no pain, 100 mm—extreme pain). Once the patient had marked his or her pain on the card, he/she was prepped for knee cannulation. Once the cannula was placed, the patient received by intra-articular infiltration, 3 mg/kg (maximum dose of 200 mg) of 2% lignocaine into the knee scheduled to be replaced.
VAS pain scores as well as verbal reports were taken immediately following administration, as well as prior to knee replacement surgery. No subjects discontinued from the study due to adverse events.
On the Post-Treatment Day, study evaluation was performed followed by the scheduled knee replacement, with intra-operative bone and soft tissue biopsies performed for subsequent examination. […] This therefore left the 3 placebo and 9 active patients from the 4 day, 7 day, and 14 day cohorts.

[3] = test system: subjects undergoing transpositional osteotomy (bunionectomy) for hallux valgus deformity; experiment: Bunionectomy efficacy study (Phase II), intra-operative infiltration into the wound; format: in vivo, human; details: for VAS pain score at operation site (Table 4): 1000 μg into wound, mean +/− SEM, n = 11
Procedure: The primary efficacy endpoint was the proportion of subjects in each treatment group requiring opioid analgesia in the first 24 hours post-operatively. The proportions were compared amongst treatment groups using the Cochran-Haenszel test. Secondary efficacy end points included: i) proportion of subjects in each treatment group requiring opioid analgesia in the first 36 hour period post-operatively (Similarly, the proportions were compared amongst treatment groups using the Cochran-Haenszel test); ii) proportion of subjects in each treatment group requiring opioid analgesia in the 10 day period post-operatively (Similarly, the proportions were compared amongst treatment groups using the Cochran-Haenszel test); iii) time to first usage of opioid analgesia in each treatment group (a survival analysis approach will be used: the product-limit (Kaplan-Meier) method will be applied to time to first usage of opioid analgesia. The median time to first usage of opioid analgesia will be estimated in both treatment groups. Pairwise comparisons will be performed to test for equality of the survival curves between the 2 treatment groups using both the log-rank and the Wilcoxon test); iv) total usage of analgesia in each treatment group (the total usage of analgesia will be compared by an analysis of variance with treatment and center as independent variables. A pairwise comparison will be performed between the treatment groups); and v) VAS assessment of pain at the site of operation in each treatment group (The VAS score at each time point will be compared by an analysis of variance with treatment and center as independent variables. A pairwise comparison will be performed between the treatment groups). […] The efficacy analysis was performed on the data obtained ten days postoperatively. The safety analysis was performed based on the safety data for the entire study, including the 6 week and 12 week follow-up periods. The blind was broken at the time the efficacy analysis was performed. However, the individual treatment assignment was available to the statistical analysis group only. All other personnel involved in the study, including the Investigator, study monitor and proprietary staff, remained blinded until the entire study was completed.
The study was designed to include 40 evaluation subjects. […] Each subject had six (6) study visits: a Screening Day (Day −28 to −1), an Operation Day (Day 0), and four (4) Follow-up visits (scheduled for Days 3, 10 and weeks 6 and 12).
On Operation Day (Day 0) the following was performed: a) Pre-operation: Prior to the initiation of an ankle block, inclusion/exclusion criteria assessment was performed. […] Immediately prior to wound closure, the Investigator slowly dripped the study medication (4 mL) from a syringe into the wound, ensuring even tissue exposure. The wound was then closed according to normal practices and procedures.
In the 24 hours following administration of study medication, vital signs (supine pulse rate and blood pressure) were recorded at 1, 2, 4 and 24 hours post administration. VAS assessment of pain at the operation site was performed at 1, 4, 8, 12 and 24 hours post administration. In those instances where VAS measurements coincide with blood sampling procedures, the VAS assessment was performed first. […] The quantity of each blood sample was 10 mL. Laboratory safety assessments, e.g., haematology, biochemistry, urinalysis were performed at 24 hours post administration. Adverse events were spontaneously reported by the subject and recorded. Rescue analgesia medication was provided to the subject if required (initially diclofenac 50 mg, repeated at 8 hourly intervals if necessary).

[4] = cited from earlier work
[5] = test system: radiation induced hyperalgesia; details: systemic, cited from earlier work
[6] = 10, 100, 300 μg intra-articular

C=C(C)[C@]12C[C@@H](C)[C@@]34O[C@](Cc5ccccc5)(O[C@@H]1[C@@H]3C=C(COC(=O)Cc1ccc(O)c(OC)c1)C[C@]1(O)C(=O)C(C)=C[C@@H]41)O2 [Resiniferatoxin, resiniferatoxin]
potency compared with capsaicin [1]: 10^3-10^4 fold

COc1cc(CNC(=O)CCCC/C=C/C(C)C)ccc1O [purified capsaicin, N-(4-hydroxy-3-methoxybenzyl)-8-methylnon-trans-6-enamide]
patients reporting transient burning pain immediately following instillation ([2]; 10 μg intra-articular): 0 of 4 | subjects requiring intervention for post-injection (hyper)algesia ([2]; 100 μg dose group (n=4)): 1 subject | patients reporting transient burning pain immediately following instillation ([2]; 100 μg intra-articular): 1 of 4 | subjects requiring intervention for post-injection (hyper)algesia ([2]; 300 μg dose group (n=4)): 4 subjects | patients reporting transient burning pain immediately following instillation ([2]; 300 μg intra-articular): 4 of 4 | VAS reduced, prior to administration vs day of surgery ([2]; 9 active patients of the 4, 7 and 14 day cohorts, doses 10-300 μg pooled): 62±14% | effects on laboratory safety parameters or vital signs [2, 6]: no treatment related effects | effects on soft tissue, cartilage, or bone upon histopathological examination [2, 6]: no treatment related effects | gross and microscopic pathology [2, 6]: normal | signs of erythema, edema, or hemorrhage at the site of injection [2, 6]: no treatment related signs | systemic side effects [2, 6]: No treatment related systemic side effects were seen | tolerability [2, 6]: well tolerated at all dose levels | median decrease from baseline to pre-operative time point in VAS for pain at the target knee, compared with placebo ([2]; all 3 capsaicin dose groups): substantially greater | average duration of post injection hyperalgesia ([2]; all cases): less than thirty minutes | onset of post-administration (hyper)algesia after administration ([2]; all episodes, 100 μg and 300 μg): ≤ 5 min | indication of efficacy on VAS pain ([2]; any of the dose levels (10 μg, 100 μg, 300 μg)): No clear treatment related indication of efficacy | effect on pain score and use of rescue ([3]; 1000 μg into the wound prior to wound closure): reduced both pain score as well as the use of rescue | VAS pain score at operation site (Table 4) ([3]; 8 hr): 5.5 +/− 2.3 | VAS pain score at operation site (Table 4) ([3]; 12 hr): 8.2 +/− 3.8 | VAS pain score at operation site (Table 4) ([3]; 24 hr): 1.9 +/− 1.0 | VAS pain score at operation site (Table 4) ([3]; 48 hr): 5.9 +/− 2.5 | study subjects requiring rescue ([3]; 1000 μg prior to wound closure, within 72 hours, n=11, P<0.05 vs placebo): 40% | solubility in alcohol, ether, benzene and chloroform [4]: freely soluble | radiation induced hyperalgesia ([5]; final doses of 25 mg/kg or less prior to ultra violet radiation): prevented radiation induced hyperalgesia | pain threshold ([5]; final doses of 25 mg/kg or less): did not elevate the pain threshold above normal range | pain threshold ([5]; final doses of 50 mg/kg or greater): pain threshold elevated
